Data taken from patent US4444771A, “Azeto triazolo pyrazine β-lactam antibacterial agents” (Beecham Group Limited, priority 1980, dated 1984).
Structures can show the parent of a compound that is named as a salt.

How the values were obtained:
Format in all cases: cell-based
B. subtilis = test: Antibacterial activity, minimum inhibitory concentration, B. subtilis; details: Bacillus subtilis, serial dilution, DST agar + 10% horse blood, 10^-2 dilution inoculum, 37°, 18 h
Experimental: (§1) Minimum Inhibitory Concentration μg/ml^a
(§2) ^a Determined by serial dilution on DST agar containing 10% horse
(§3) blood using an inoculum of 0.001 ml of a 10^-2 dilution for
(§4) Grampositive bacteria or a 10^-4 dilution for Gramnegative organisms.
(§5) MIC values were read after incubation at 37° for eighteen hours.

K. aerogenes = test: Antibacterial activity, minimum inhibitory concentration, K. aerogenes; details: Klebsiella aerogenes, serial dilution, DST agar + 10% horse blood, 10^-4 dilution inoculum, 37°, 18 h
Experimental: as §1, §2, §3, §4, §5

S. pneumoniae = test: Antibacterial activity, minimum inhibitory concentration, S. pneumoniae; details: Streptococcus pneumoniae, serial dilution, DST agar + 10% horse blood, 10^-2 dilution inoculum, 37°, 18 h
Experimental: as §1, §2, §3, §4, §5

S. aureus Russell = test: Antibacterial activity, minimum inhibitory concentration, S. aureus Russell; details: Staphylococcus aureus; S. aureus Russell (lactamase-producing benzylpenicillin-resistant strain); serial dilution, DST agar + 10% horse blood, 10^-2 dilution inoculum, 37°, 18 h
Experimental: as §1, §2, §3, §4, §5
^b lactamase-producing benzylpenicillinresistant strain.

S. pyogenes = test: Antibacterial activity, minimum inhibitory concentration, S. pyogenes; details: Streptococcus pyogenes, serial dilution, DST agar + 10% horse blood, 10^-2 dilution inoculum, 37°, 18 h
Experimental: as §1, §2, §3, §4, §5

S. typhimurium = test: Antibacterial activity, minimum inhibitory concentration, S. typhimurium; details: Salmonella enterica, serial dilution, DST agar + 10% horse blood, 10^-4 dilution inoculum, 37°, 18 h
Experimental: as §1, §2, §3, §4, §5

E. coli = test: Antibacterial activity, minimum inhibitory concentration, E. coli; details: Escherichia coli, serial dilution, DST agar + 10% horse blood, 10^-4 dilution inoculum, 37°, 18 h
Experimental: as §1, §2, §3, §4, §5

S. aureus Oxford = test: Antibacterial activity, minimum inhibitory concentration, S. aureus Oxford; details: Staphylococcus aureus, serial dilution, DST agar + 10% horse blood, 10^-2 dilution inoculum, 37°, 18 h
Experimental: as §1, §2, §3, §4, §5

S. faecalis = test: Antibacterial activity, minimum inhibitory concentration, S. faecalis; details: Enterococcus faecalis, serial dilution, DST agar + 10% horse blood, 10^-2 dilution inoculum, 37°, 18 h
Experimental: as §1, §2, §3, §4, §5

P. mirabilis = test: Antibacterial activity, minimum inhibitory concentration, P. mirabilis; details: Proteus mirabilis, serial dilution, DST agar + 10% horse blood, 10^-4 dilution inoculum, 37°, 18 h
Experimental: as §1, §2, §3, §4, §5

For CC1=C(C(=O)O)N2C(=O)[C@H](NC(=O)COc3ccccc3)[C@@H]2c2cnnn21 (relative stereo) [Compound 15, (4bRS,5RS) 5,6-Dihydro-9-methyl-6-oxo-5-phenoxyacetamido-4bH-azeto-[2,1-c]v-triazolo-[1,5-a]-pyrazine-8-carboxylic acid], the MIC (B. subtilis) was 5 µg/mL, the MIC (K. aerogenes) was > 100 µg/mL and the MIC (S. pneumoniae) was 2.5 µg/mL. The MIC (S. aureus Russell) was 100 µg/mL, the MIC (S. pyogenes) was 5 µg/mL and the MIC (S. typhimurium) was > 100 µg/mL. The MIC (E. coli) was > 100 µg/mL, the MIC (S. aureus Oxford) was 25 µg/mL and the MIC (S. faecalis) was > 100 µg/mL. For the same compound, the MIC (P. mirabilis) was > 100 µg/mL.

For CC1=C(C(=O)O)N2C(=O)[C@H](NC(=O)C(C(=O)Oc3ccccc3)c3ccccc3)[C@@H]2c2cnnn21 (relative stereo) [Compound 22, (4bRS,5RS) 5,6-Dihydro-9-methyl-6-oxo-5-[DL-α-phenoxycarbonylphenylacetamido]-4bH-azeto[2.1-c]-v-triazolo[1.5-a]-pyrazine-8-carboxylic acid], the MIC (B. subtilis) was 100 µg/mL, the MIC (K. aerogenes) was > 100 µg/mL and the MIC (S. aureus Russell) was > 100 µg/mL. For the same compound, the MIC (S. typhimurium) was 50 µg/mL, the MIC (E. coli) was 100 µg/mL and the MIC (S. aureus Oxford) was > 100 µg/mL. The MIC (S. faecalis) was > 100 µg/mL and the MIC (P. mirabilis) was 100 µg/mL.

For CC(=O)N[C@H]1C(=O)N2C(C(=O)O)=C(C)n3nncc3[C@@H]12 (relative stereo) [Compound 35, (4bRS,5RS) 5-Acetamido-5,6-dihydro-9-methyl-6-oxo-4bH-azeto-[2,1-c]-v-triazolo-pyrazine-8-carboxylic acid], the MIC (B. subtilis) was 5 µg/mL, the MIC (K. aerogenes) was > 100 µg/mL and the MIC (S. pneumoniae) was 5 µg/mL. For the same compound, the MIC (S. aureus Russell) was > 100 µg/mL, the MIC (S. pyogenes) was 2.5 µg/mL and the MIC (S. typhimurium) was 100 µg/mL. For the same compound, the MIC (E. coli) was > 100 µg/mL, the MIC (S. aureus Oxford) was 100 µg/mL and the MIC (S. faecalis) was > 100 µg/mL. The MIC (P. mirabilis) was > 100 µg/mL.

CC1=C(C(=O)O)N2C(=O)[C@H](NC(=O)Cc3cccs3)[C@@H]2c2cnnn21 (relative stereo) [Compound 55, (4bRS,5RS) 5,6-Dihydro-9-methyl-6-oxo-5-(2-thienylacetamido)-4bH-azeto-[2,1-c]-v-triazolo-[1,5-a]-pyrazine-8-carboxylic acid, p-toluidine salt)] was tested, and the MIC (B. subtilis) was 0.5 µg/mL, the MIC (K. aerogenes) was 100 µg/mL and the MIC (S. pneumoniae) was 2.5 µg/mL. The MIC (S. aureus Russell) was 100 µg/mL, the MIC (S. pyogenes) was 0.2 µg/mL and the MIC (S. aureus Oxford) was 10 µg/mL. It also gave an MIC (S. faecalis) of 25 µg/mL and an MIC (P. mirabilis) of 10 µg/mL.

For CC1=C(C(=O)O)N2C(=O)C(NC(=O)[C@H](N)c3ccccc3)C2c2cnnn21 (stereo partly drawn) [Compound 28, (4bRS,5RS)-5,6-Dihydro-9-methyl-6-oxo-5-D-α-phenylglycylamino-4bH-azeto-[2,1-c]-v-triazolo[1,5-a]pyrazine-8-carboxylic acid, p-toluidine salt], the MIC (B. subtilis) was 10 µg/mL, the MIC (K. aerogenes) was > 100 µg/mL and the MIC (S. pneumoniae) was 10 µg/mL. The MIC (S. aureus Russell) was > 100 µg/mL, the MIC (S. pyogenes) was 2.5 µg/mL and the MIC (S. typhimurium) was > 100 µg/mL. The MIC (E. coli) was > 100 µg/mL, the MIC (S. aureus Oxford) was 100 µg/mL and the MIC (S. faecalis) was > 100 µg/mL. For the same compound, the MIC (P. mirabilis) was > 100 µg/mL.

For CC1=C(C(=O)O)N2C(=O)[C@H](NC(=O)[C@H](O)c3ccccc3)[C@@H]2c2cnnn21 [Compound 39, (4bR,5R) 5,6-Dihydro-5-D-α-hydroxyphenylacetamido-9-methyl-6-oxo-4bH-azeto-[2,1-c]-v-triazolo-[1,5-a]-pyrazine-8-carboxylic acid], the MIC (B. subtilis) was 100 µg/mL, the MIC (K. aerogenes) was > 100 µg/mL and the MIC (S. pneumoniae) was > 100 µg/mL. For the same compound, the MIC (S. aureus Russell) was > 100 µg/mL, the MIC (S. pyogenes) was > 100 µg/mL and the MIC (S. typhimurium) was > 100 µg/mL. The MIC (E. coli) was > 100 µg/mL, the MIC (S. aureus Oxford) was > 100 µg/mL and the MIC (S. faecalis) was > 100 µg/mL. The MIC (P. mirabilis) was > 100 µg/mL.

For CC1=C(C(=O)O)N2C(=O)[C@@H](NC(=O)[C@H](O)c3ccccc3)[C@H]2c2cnnn21 [Compound 40, (4bS,5S)-5,6-Dihydro-5-D-α-hydroxyphenylacetamido-9-methyl-6-oxo-4bH-azeto-[2,1-c]-v-triazolo-[1,5-a]-pyrazine-8-carboxylic acid], the MIC (B. subtilis) was 0.5 µg/mL, the MIC (K. aerogenes) was 100 µg/mL and the MIC (S. pneumoniae) was ≤ 0.2 µg/mL. The MIC (S. aureus Russell) was 100 µg/mL, the MIC (S. pyogenes) was 50 µg/mL and the MIC (S. typhimurium) was 25 µg/mL. The MIC (E. coli) was > 100 µg/mL, the MIC (S. aureus Oxford) was 25 µg/mL and the MIC (S. faecalis) was 100 µg/mL. For the same compound, the MIC (P. mirabilis) was 10 µg/mL.

CC1=C(C(=O)O)N2C(=O)[C@@H](NC(=O)COc3ccccc3)[C@H]2c2cnnn21 [Compound 42, (4bS,5S)-5,6-Dihydro-9-methyl-6-oxo-5-phenoxyacetamido-4bH-azeto-[2,1-c]-v-triazolo-[1,5-a]-pyrazine-8-carboxylic acid] was tested, and the MIC (B. subtilis) was 0.5 µg/mL, the MIC (K. aerogenes) was > 50 µg/mL and the MIC (S. pneumoniae) was 5 µg/mL. The MIC (S. aureus Russell) was > 50 µg/mL, the MIC (S. pyogenes) was 2.5 µg/mL and the MIC (S. typhimurium) was > 50 µg/mL. For the same compound, the MIC (E. coli) was > 50 µg/mL, the MIC (S. faecalis) was 50 µg/mL and the MIC (P. mirabilis) was > 50 µg/mL.
